Experiments:
Type in all cases: cell-based, murine
[1] = system: LPS-induced NO production; experiment: Inhibition of LPS-induced NO production (nitrite determination) in RAW 264.7 cells; details: LPS-induced RAW 264.7 cells; for inhibition at 1 µM / inhibition at 10 µM: Mus musculus, read-out: Inhibition Rate (%) of NO production; for inhibition at 1 µM: RAW264.7, 1 μM; for inhibition at 10 µM: RAW264.7, 10 μM
Procedure: (§1) Upon confirming the non-cytotoxicity of 10 μM concentration of these three derivatives against murine RAW 264.7 macrophages induced by LPS, compounds 1f, 1k, and 1m were tested for inhibitory effect against LPS-induced PGE2 production together with checking their cell viability. […] The fluorine atom can also add some more merits such as formation of an additional hydrogen bond with a hydrogen bond donor in the target protein and stronger hydrophobic interaction by fluorophenyl compared with unsubstituted phenyl. […] Moreover, 1f and 1m were evaluated at 1 and 10 μM for inhibitory effects on LPS-induced NO production.
(§2) Cell culture and sample treatment, nitrite determination, PGE2 assay, and MTT assay for cell
(§3) viability have been carried out following the reported procedures [Bioorg. Med. Chem. Lett. […]

[2] = MTT assay for cell viability in RAW 264.7 macrophages; details: mouse, murine RAW 264.7 macrophages, mean ± SD of three experiments
Procedure: (§4) Before screening the PGE2 and NO production inhibitory effects of the compounds, the compounds’ cytotoxicity was evaluated at 1 and 10 μM concentrations to make sure that the tested concentrations are safe enough and non-cytotoxic to avoid misleading results. All compounds were non-cytotoxic at 1 μM concentration, while by increasing concentration to 10 μM, all the target compounds except 1f, 1k, and 1m started showing cytotoxicity. […] The piperidinyl and the morpholino moieties seem to be unfavorable to avoid cytotoxicity in this series of compounds. page 9: Biological evaluation Cell culture and sample treatment, nitrite determination, PGE2 assay, and MTT assay for cell viability have been carried out following the reported procedures [Bioorg. Med. Chem. Lett. 2014, 24, 571 & Eur. J. Pharmacol. 2008, 584, 175]. Western blot RAW 264.7 macrophage cells were re-suspended in PRO-PREPTM protein extraction solution (Intron Biotechnology, Seoul, Korea) and incubated with 20 min at 4 °C. The cell debris was removed by microcentrifugation, and the supernatants were quickly frozen. The protein concentration was determined using the Bio-Rad protein assay reagent according to the manufacture’s instruction. Cellular proteins were electroblotted onto a PVDF membrane following separation on 8-12% SDS-polyacrylamide gel electrophoresis. The immunoblot was incubated with blocking solution (5% skimmed milk) at room temperature for 1 h, followed by incubation overnight with a primary antibody at 4 °C. The blots were washed four times with a Tween 20/Tris-buffered saline (T/TBS) and incubated with a 1:2000 dilution of horseradish peroxidase-conjugated secondary antibody for 2 h at room temperature. The blots were again washed three times with T/TBS, and then developed by enhanced chemiluminescence (GE healthcare, WI, USA). Page 9 of 55

[3] = system: LPS-induced PGE2 production; experiment: Inhibition of LPS-induced PGE2 production in RAW 264.7 macrophages; details: for inhibition of PGE2 production (in words): 2.5, 5, 10 μM
Procedure: as §1, §2, §3

[4] = system: RAW 264.7 macrophages; experiment: MTT assay for cell viability in RAW 264.7 macrophages; details: 2.5, 5, 10 μM; LPS-induced RAW 264.7 macrophages
[5] = system: RAW 264.7 macrophages; experiment: as above; details: 10 μM; RAW 264.7 macrophages
Procedure: as §4

[6] = system: phosphorylation of p38; experiment: Western blot of p-p38 in LPS-induced RAW 264.7 macrophages
Procedure: (§5) Furthermore, the most promising compound 1m was chosen for a more extensive investigation of its molecular mechanism(s) of action. It was tested for inhibitory effects on COX-2 and iNOS protein expressions (Figure 4).
(§6) Cell culture and sample treatment, nitrite determination, PGE2 assay, and MTT assay for cell viability have been carried out following the reported procedures [Bioorg. Med. Chem. Lett.
(§7) RAW 264.7 macrophage cells were re-suspended in PRO-PREPTM protein extraction solution (Intron Biotechnology, Seoul, Korea) and incubated with 20 min at 4 °C. The cell debris was removed by microcentrifugation, and the supernatants were quickly frozen. The protein concentration was determined using the Bio-Rad protein assay reagent according to the manufacture’s instruction. Cellular proteins were electroblotted onto a PVDF membrane following separation on 8-12% SDS-polyacrylamide gel electrophoresis. The immunoblot was incubated with blocking solution (5% skimmed milk) at room temperature for 1 h, followed by incubation overnight with a primary antibody at 4 °C. The blots were washed four times with a Tween 20/Tris-buffered saline (T/TBS) and incubated with a 1:2000 dilution of horseradish peroxidase-conjugated secondary antibody for 2 h at room temperature. The blots were again washed three times with T/TBS, and then developed by enhanced chemiluminescence (GE

[7] = system: iNOS protein expression; experiment: Western blot of iNOS protein expression in LPS-induced RAW 264.7 macrophages; details: especially at 10 µM
Procedure: as §5, §6, §7

[8] = system: COX-2 protein expression; experiment: Western blot of COX-2 protein expression in LPS-induced RAW 264.7 macrophages; details: especially at 10 µM
Procedure: as §5, §6, §7

[9] = LPS-induced RAW 264.7 macrophages
[10] = Mus musculus, RAW264.7, LPS-induced RAW 264.7 macrophages

Q: With `CC(=N)NCCCC[C@H](N)C(=O)O` [L-NIL, reference compound] as the compound, how does the “Inhibition Rate (%) of NO production” value ([1]; 1 μM) read?
A: 3.9 ± 2.1%

Q: What about the “Inhibition Rate (%) of NO production” value ([1]; 10 μM) of the same compound?
A: 31.32 ± 2.9%

Q: Which viability at 1 µM [2] does the source give for `COc1cc(-c2nn(-c3cccc(NC(=O)CN4CCN(c5ccccc5)CC4)c3)cc2-c2ccncc2)ccc1Cl` [Compound 1e] here?
A: 87 ± 4.1%

Q: And the viability at 10 µM [2]?
A: 65 ± 4.1%

Q: What does the source list for `COc1cc(-c2nn(-c3cccc(NC(=O)CCN4CCN(Cc5ccc(F)cc5)CC4)c3)cc2-c2ccncc2)ccc1Cl` [Compound 1m]?
A: inhibition of PGE2 production (in words) [3, 9]: good inhibition values; IC50 [3, 10]: 1.1 µM; inhibition at 2.5 µM ([3]; Mus musculus, RAW264.7, 2.5 μM, LPS-induced RAW 264.7 macrophages): 67%; inhibition at 10 µM [3, 10]: 84.9%; cytotoxicity (in words), LPS-induced RAW 264.7 cell viability [4]: no cytotoxicity; viability at 1 µM [2]: 90 ± 4.1%; viability at 10 µM [2]: 97 ± 3.9%; cytotoxicity (in words) [5]: non-cytotoxic; effect on phosphorylation of p38 (in words) [6]: markedly suppressed; Inhibition Rate (%) of NO production ([1]; 10 μM): 37.19 ± 3.4%; inhibition at 1 µM [1]: 0%; inhibition at 10 µM [1]: 37%; effect on iNOS protein expression (in words) [7]: concentration-dependent inhibitory effect; effect on COX-2 protein expression (in words) [8]: concentration-dependent inhibitory effect

Q: Which viability at 1 µM [2] does the source give for `COc1cc(-c2nn(-c3cccc(NC(=O)CCN4CCOCC4)c3)cc2-c2ccncc2)ccc1Cl` [Compound 1h] here?
A: 99 ± 2.8%

Q: What about the viability at 10 µM [2] of the same compound?
A: 75 ± 1.7%

Q: What does the source list for `CCN1CCN(CC(=O)Nc2cccc(-n3cc(-c4ccncc4)c(-c4ccc(Cl)c(OC)c4)n3)c2)CC1` [Compound 1d]?
A: viability at 1 µM [2]: 75 ± 2.9%; viability at 10 µM [2]: 3 ± 0.4%

Q: Which viability at 1 µM [2] does the source give for `COc1cc(-c2nn(-c3cccc(NC(=O)CN4CCOCC4)c3)cc2-c2ccncc2)ccc1Cl` [Compound 1b] here?
A: 92 ± 4.5%

Q: And the viability at 10 µM [2]?
A: 65 ± 2.8%

Q: With `COc1cc(-c2nn(-c3cccc(NC(=O)CCN4CCN(Cc5ccccc5)CC4)c3)cc2-c2ccncc2)ccc1Cl` [Compound 1l] as the compound, how does the viability at 1 µM [2] read?
A: 86 ± 3.7%

Q: And the viability at 10 µM [2]?
A: 34 ± 1.1%

Q: With `COc1cc(-c2nn(-c3cccc(NC(=O)CN4CCN(C)CC4)c3)cc2-c2ccncc2)ccc1Cl` [Compound 1c] as the compound, how does the viability at 1 µM [2] read?
A: 78 ± 3.3%

Q: And the viability at 10 µM [2]?
A: 5 ± 0.8%

Q: What does the source list for `COc1cc(-c2nn(-c3cccc(NC(=O)CN4CCN(Cc5ccccc5)CC4)c3)cc2-c2ccncc2)ccc1Cl` [Compound 1f]?
A: inhibition of PGE2 production (in words) [3, 9]: good inhibition values; IC50 [3, 9]: 7.1 µM; IC50 [3, 10]: 7.6 µM; inhibition at 5 µM ([3]; Mus musculus, RAW264.7, 5 μM, LPS-induced RAW 264.7 macrophages): 37.4%; inhibition at 10 µM [3, 10]: 65.4%; cytotoxicity (in words), LPS-induced RAW 264.7 cell viability [4]: no cytotoxicity; viability at 1 µM [2]: 66 ± 1.8%; viability at 10 µM [2]: 107 ± 8.5%; cytotoxicity (in words) [5]: non-cytotoxic; Inhibition Rate (%) of NO production ([1]; 10 μM): 11.06 ± 1.5%; inhibition at 1 µM [1]: 0%; inhibition at 10 µM [1]: 11.6%

Q: For `COc1cc(-c2nn(-c3cccc(NC(=O)CCN4CCN(c5ccccc5)CC4)c3)cc2-c2ccncc2)ccc1Cl` [Compound 1k], which “inhibition of PGE2 production (in words)” value [3, 9] is on record?
A: good inhibition values

Q: And the “cytotoxicity (in words), LPS-induced RAW 264.7 cell viability” value [4]?
A: no cytotoxicity

Q: And the viability at 1 µM [2]?
A: 89 ± 2.8%

Q: What about the viability at 10 µM [2] of the same compound?
A: 112 ± 7.6%

Q: And the “cytotoxicity (in words)” value [5]?
A: non-cytotoxic

Q: Which viability at 1 µM [2] does the source give for `COc1cc(-c2nn(-c3cccc(NC(=O)CCN4CCCCC4)c3)cc2-c2ccncc2)ccc1Cl` [Compound 1g] here?
A: 87 ± 3.8%

Q: And the viability at 10 µM [2]?
A: 5 ± 1.1%

Q: With `COc1cc(-c2nn(-c3cccc(NC(=O)CN4CCCCC4)c3)cc2-c2ccncc2)ccc1Cl` [Compound 1a] as the compound, how does the viability at 1 µM [2] read?
A: 99 ± 5.9%

Q: What about the viability at 10 µM [2] of the same compound?
A: 10 ± 1.2%

Q: With `COc1cc(-c2nn(-c3cccc(NC(=O)CCN4CCN(C)CC4)c3)cc2-c2ccncc2)ccc1Cl` [Compound 1i] as the compound, how does the viability at 1 µM [2] read?
A: 99 ± 3.4%

Q: And the viability at 10 µM [2]?
A: 5 ± 1.8%

Q: Which viability at 1 µM [2] does the source give for `CCN1CCN(CCC(=O)Nc2cccc(-n3cc(-c4ccncc4)c(-c4ccc(Cl)c(OC)c4)n3)c2)CC1` [Compound 1j] here?
A: 98 ± 3.1%

Q: And the viability at 10 µM [2]?
A: 5 ± 0.8%

From publication PMC8587869, “Evaluation of the Inhibitory Effects of Pyridylpyrazole Derivatives on LPS-Induced PGE2 Productions and Nitric Oxide in Murine RAW 264.7 Macrophages” (Molecules, 2021)
